Like-named read-outs stand apart in the source and are kept apart here.
What was measured:
C. albicans ATCC® 10231 = experiment: Broth dilution method: MIC and synergy; assay type: cell-based, Candida albicans; settings: for MIC: RPMI-1640, 35° C., 48 h; for MIC in combination with benzydamine: in combination with benzydamine 0.125 mg/ml
Method: (§1) Candida strains stored at −80° C. were thawed and streaked on SDA plate and then a second subculture was performed. Then, Candida strains suspensions were prepared as follows.
(§2) 10 ml of saline were placed in a 50 ml falcon tube with 5 g of glass beads. Loopful of the cells of the colonies of the second subculture were transferred into the saline and suspended by rubbing the loop against the wet wall of the tube to dislodge the cells. The tube was then shacked for 3 minutes using a mechanical shaker.
(§3) The number of cells in the suspension was adjusted from 1.5×10^6 to 5.0×10^6 colony forming units (CFU)/ml using saline according to Mc Farland standard No. 0.5 standard and reading the optical density at 550 nm.
(§4) For counting, serially 1:10 dilutions were prepared using saline, to obtain 10^−4 and 10^−5 dilutions of the suspension. A sample of 100 μl of each dilution was spread plate and incubated at 37° C. for 48 h.
(§5) The methodology used for the broth dilution method was similar to that disclosed in “EUCAST Definitive Document EDef 7.1: method for the determination of broth dilution MICs of antifungal agents for fermentative yeasts” (Clin Microbiol Infect 2008; 14: 398-408).
(§6) Then, serial 1:2 dilutions were prepared in DMSO, to concentrations from 10.0 mg/ml to 0.078 mg/ml. These solutions were further diluted 1:100 in RPMI-1640 (GiBCO® by Life Technologies) containing 2% glucose, 3-(N-morpholino) propanesulfonic acid (MOPS, by SIGMA) without NaHCO3, to final concentration from 100 μg/ml to 0.78 μg/ml.
as §6, with “from 1.250” for “from 10.0”, “to 0.0196” for “to 0.078”, “from 12.50” for “from 100”, “to 0.196” for “to 0.78”
as §6, with “from 5.0” for “from 10.0”, “to 0.3125” for “to 0.078”, “from 50” for “from 100”, “to 3.125” for “to 0.78”
(§7) Benzydamine was dissolved in water to a concentration of 25 mg/ml. Then, serial 1:2 dilutions were prepared in water, to concentrations from 25 mg/ml to 3.125 mg/ml. 1 ml of each solution was added to 24 ml (1:25 dilution) of RPMI-1640 (GiBCO® by Life Technologies) containing 2% glucose, 3-(N-morpholino) propanesulfonic acid (MOPS, by SIGMA) without NaHCO3, to final concentration from 1 mg/ml to 0.125 mg/ml.
As positive control Amphotericin B from a stock solution of 1600 μg/ml was diluted in DMSO to solutions having concentrations from 200 μg/ml to 50 μg/ml. These solutions were diluted 1:100 in RPMI-1640 (GiBCO®, by Life Technology) containing 2% glucose, 3-(N-morpholino) propanesulfonic acid (MOPS, by SIGMA) without NaHCO3, to concentrations from 2 μg/ml to 0.5 μg/ml.
(§8) (B) For synergy studies, further solutions of econazole, miconazole, clotrimazole and fluconazole nitrate having concentrations from 100 μg/ml to 0.049 μg/ml were prepared in RPMI-1640 as disclosed in paragraph 1.3.1(A).
(§9) Also, further solutions of benzydamine having concentrations from 1 mg/ml to 0.25 mg/ml were prepared in RPMI-1640 as disclosed in paragraph 1.3.1(A). Moreover, the solution of benzydamine with a concentration of 1 mg/ml was further diluted 1:1.43 with RPMI-1640 to concentration of 0.7 mg/ml.
(§10) Microdilution plates containing wells with a nominal capacity of about 300 μL/well were used.
(§11) The Candida strains suspensions prepared as described in paragraph 1.1 were grown on Sabouraud's agar medium SDA (Oxoid). Colonies were diluted in phosphate-buffered saline (PBS) and suspensions were adjusted to approximately 1-5×10^5 CFU/ml using Mc Farland 0.5 standard and reading the optical density at 550 nm.

[1] = system: C. albicans ATCC® MYA-427; experiment: Broth dilution method: MIC and synergy; assay type: cell-based, Candida albicans; settings: for MIC: Candida albicans, active ingredient alone, RPMI-1640, 35° C., 48 h; for MIC in combination with benzydamine: in combination with benzydamine 0.125 mg/ml
Method: as §1, §2, §3, §4, §5, §6, §7, §8, §9, §10, §11
(§12) (A) For the calculation of the MIC, microdilution plates containing in each well 100 μl of each solution of the active ingredients obtained as described in paragraph 1.3.1(A) were prepared. The wells were then inoculated with 100 μl of Candida strains suspensions obtained as disclosed above containing 1-5×10^5 CFU/ml.
(§13) In each well, the final inoculum density and the final concentration of the active ingredients was half of that used (i.e. the final inoculum density was 0.5-2.5×10^5 CFU/ml, the concentration of econazole and miconazole was from 50 μg/ml to 0.39 μg/ml, the concentration of clotrimazole was from 6.25 μg/ml to 0.098 μg/ml, the concentration of fluconazole was from 50 μg/ml to 3.125 μg/ml and the concentration of benzydamine was from 0.5 mg/ml to 0.0625 mg/ml).
(§14) The microdilution plates were incubated for 48 hours at 35° C.
(§15) (B) For synergy studies, microdilution plates containing in each well 50 μl of each solution of econazole and miconazole and 50 μl of each solution of benzydamine, obtained as disclosed in paragraph 1.3.1(B), were prepared. Then, the wells were inoculated with 100 μl of the 1-5×10^5 CFU/ml Candida suspensions. […]

[2] = system: C. albicans ATCC® MYA-574 fluconazole resistant; experiment: Broth dilution method: MIC and synergy; assay type: cell-based, Candida albicans; settings: for MIC: Candida albicans, active ingredient alone, RPMI-1640, 35° C., 48 h
Method: as §1, §2, §3, §4, §5, §6, §7, §8, §9, §10, §11, §12, §13, §14, §15

[3] = system: C. lusitaniae ATCC® 34449; experiment: Agar dilution method: MIC and synergy (FIC); assay type: cell-based, Candida lusitaniae; settings: for MIC: Clavispora lusitaniae, ATCC34449, active ingredient alone, agar dilution, Sabouraud agar, 35° C., 48 h, complete inhibition of growth
Method: Candida strains stored at -80° C. were thawed and streaked on SDA plate and then a second subculture was performed. Then, Candida strains suspensions were prepared as follows. 10 ml of saline were placed in a 50 ml falcon tube with 5 g of glass beads. Loopful of the cells of the colonies of the second subculture were transferred into the saline and suspended by rubbing the loop against the wet wall of the tube to dislodge the cells. The tube was then shacked for 3 minutes using a mechanical shaker. The number of cells in the suspension was adjusted from 1.5×10^6 to 5.0×10^6 colony forming units (CFU)/ml using saline according to Mc Farland standard No. 0.5 standard and reading the optical density at 550 nm. For counting, serially 1:10 dilutions were prepared using saline, to obtain 10^-4 and 10^-5 dilutions of the suspension. A sample of 100 μl of each dilution was spread plate and incubated at 37° C. for 48 h. […] The methodology was similar to that disclosed by R. Moody et al., “In Vitro Activities of Miconazole, Miconazole Nitrate, and Ketoconazole Alone and Combined with Rifampin against Candida spp. and Torulopsis glabrata Recovered from Cancer Patients.”, Antimicrobial Agents and Chemotherapy: 1980, 17, 871-875. Standard Petri dishes (92 mm diameter×16 mm height) were used. After the agar was poured, plates were allowed to cool and then immediately used. […] All the Petri dishes were incubated at 35° C. for 48 h. (B) For synergy studies, the surface of each Petri dish prepared as described in paragraph 1.2.1(B) was inoculated with four spots (20 μl inoculum volume) of the Candida strains suspensions prepared as described in paragraph 1.1, and incubated at 35° C. for 48 hours. The lowest concentration of drug that produced a complete inhibition of growth for a certain Candida strain was regarded as the minimal inhibitory concentration (MIC) for said strain. […] The synergistic effect of the combinations comprising benzydamine and econazole nitrate was evaluated by calculating the fractional inhibitory concentration (FIC), in accordance with […]. et al. in Antimicrobial Agents and Chemotherapy, February 2010, p. 602-609. […] FIC[combination b+e]=[…]] is the fractional inhibitory concentration of benzydamine with respect to a specific Candida strain, calculated as the ratio between the MIC of benzydamine in the presence of a sub-MIC amount of econazole (MIC(b+e)) and the MIC of benzydamine alone (MIC(b)), as follows: FIC[e] is the fractional inhibitory concentration of econazole with respect to a specific Candida strain, calculated as the ratio between the MIC of econazole in the presence of a sub-MIC amount of benzydamine (MIC(e+b)) and the MIC of econazole alone (MIC(e)), as follows: […]

C. tropicalis ATCC® 750 = experiment: Broth dilution method: MIC and synergy (FIC); assay type: cell-based, Candida tropicalis; settings: for MIC: RPMI-1640, 35° C., 48 h; for MIC in combination with benzydamine: in combination with benzydamine 0.175 mg/ml
Method: as §1, §2, §3, §4, §5, §6
as §6, with “from 1.250” for “from 10.0”, “to 0.0196” for “to 0.078”, “from 12.50” for “from 100”, “to 0.196” for “to 0.78”
as §6, with “from 5.0” for “from 10.0”, “to 0.3125” for “to 0.078”, “from 50” for “from 100”, “to 3.125” for “to 0.78”
as §7, §8, §9, §10, §11, §12

[4] = Candida albicans, ATCC10231, active ingredient alone, read-out: MIC
[5] = Candida tropicalis, ATCC750, active ingredient alone, read-out: MIC

Row | Compound | MIC (C. albicans ATCC® 10231; active ingredient alone) | MIC [1] | MIC [2] | MIC of benzydamine in combination with econazole ([2]; in combination with econazole) | MIC of benzydamine in combination with miconazole ([2]; in combination with miconazole) | MIC [3] | FIC[b] (fractional inhibitory concentration of benzydamine) ([3]; MIC of benzydamine in presence of sub-MIC econazole / MIC of benzydamine alone) | MIC (C. albicans ATCC® 10231; [4]) | MIC (C. tropicalis ATCC® 750; [5]) | MIC in combination with benzydamine [1] | MIC in combination with benzydamine [2] | FIC[e] (fractional inhibitory concentration of econazole) ([3]; MIC of econazole in presence of sub-MIC benzydamine / MIC of econazole alone) | MIC in combination with benzydamine (C. albicans ATCC® 10231) | MIC in combination with benzydamine (C. tropicalis ATCC® 750) | MIC (C. tropicalis ATCC® 750; active ingredient alone)
1 | C[C@@H]1[C@H](O)[C@@H](C)/C=C/C=C/C=C/C=C/C=C/C=C/C=C/[C@H](O[C@@H]2O[C@H](C)[C@@H](O)[C@H](N)[C@@H]2O)C[C@@H]2O[C@](O)(C[C@@H](O)C[C@@H](O)[C@H](O)CC[C@@H](O)C[C@@H](O)CC(=O)O[C@H]1C)C[C@H](O)[C@H]2C(=O)O [Amphotericin B] | 0.5 µg/mL |  |  |  |  |  |  |  |  |  |  |  |  |  | 
2 | CN(C)CCCOc1nn(Cc2ccccc2)c2ccccc12 [Benzydamine] |  | 500 µg/mL | 500 µg/mL | 125 µg/mL | 62.5 µg/mL | 500 µg/mL | 0.25 | 500 µg/mL | 500 µg/mL |  |  |  |  |  | 
3 | Clc1ccc(COC(Cn2ccnc2)c2ccc(Cl)cc2Cl)cc1 (stereo not drawn) [Econazole nitrate] |  | 25 µg/mL | 25 µg/mL |  |  | 1.56 µg/mL |  | 25 µg/mL | 12.5 µg/mL | 1.56 µg/mL | 12.5 µg/mL | 0.0628 | 3.125 µg/mL | 1.56 µg/mL | 
4 | Clc1ccc(COC(Cn2ccnc2)c2ccc(Cl)cc2Cl)c(Cl)c1 (stereo not drawn) [Miconazole nitrate] |  | 25 µg/mL | 50 µg/mL |  |  |  |  | 6.25 µg/mL | 6.25 µg/mL | 0.78 µg/mL | 12.5 µg/mL |  | 1.56 µg/mL | 0.78 µg/mL | 
5 | Clotrimazole nitrate | 0.025 µg/mL |  |  |  |  |  |  |  |  |  |  |  |  | 0.098 µg/mL | 6.25 µg/mL
6 | Fluconazole nitrate | 3.125 µg/mL |  |  |  |  |  |  |  |  |  |  |  |  | 6.25 µg/mL | 50 µg/mL
